This assay deals with T1, mouse P2RX7 (mP2RX7) (Mus musculus, UniProt Q9Z1M0).
T1 construct: expressed in transfected cells; host or cells: HEK cells
T1 sequence (Q9Z1M0 1-595): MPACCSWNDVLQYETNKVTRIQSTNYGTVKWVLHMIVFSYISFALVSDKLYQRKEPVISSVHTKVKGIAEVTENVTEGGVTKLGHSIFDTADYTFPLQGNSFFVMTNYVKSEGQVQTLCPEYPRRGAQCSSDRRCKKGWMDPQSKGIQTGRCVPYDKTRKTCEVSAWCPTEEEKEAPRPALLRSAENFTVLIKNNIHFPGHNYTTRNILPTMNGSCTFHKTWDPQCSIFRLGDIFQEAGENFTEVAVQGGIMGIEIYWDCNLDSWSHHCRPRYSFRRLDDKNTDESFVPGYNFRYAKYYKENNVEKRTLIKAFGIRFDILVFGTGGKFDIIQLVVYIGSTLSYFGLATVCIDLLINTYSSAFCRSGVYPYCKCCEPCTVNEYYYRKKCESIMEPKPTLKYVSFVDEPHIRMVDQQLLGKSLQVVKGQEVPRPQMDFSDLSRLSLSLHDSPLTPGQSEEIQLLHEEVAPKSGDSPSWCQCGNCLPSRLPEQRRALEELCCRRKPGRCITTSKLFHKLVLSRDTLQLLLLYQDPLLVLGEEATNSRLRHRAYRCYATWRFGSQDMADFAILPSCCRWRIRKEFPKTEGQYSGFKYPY
Put plainly: Channel activity (Fluo4-AM) and large pore opening (Topro3) by flow cytometry, HEK cells expressing mP2RX7, 1 h BzATP. The format is cell-based. The method, then: Calcium channel activity (Fluo4AM probe) and large pore opening (Topro3 probe) were analysed by FACS on mP2RX7 HEK cells. Cells were non stimulated (NS) or treated with BzATP (500 μM) alone or in the presence of HEI2314, HEI2328, HEI2333 or HEI2336 (used at 50 μM).
Calcium channel activity (Fluo4AM probe) and large pore opening (Topro3 probe) were analysed by FACS on mock and mP2RX7 HEK cells. Cells were non stimulated (NS) or treated with BzATP (500 μM) alone or in the presence of HEI2328 used at 50 μM.
2.1. […] Cation channel activity is assayed with the Fluo4 AM (Invitrogen) probe and opening of large pore with Topro3 (Invitrogen). In each experiment 2×10^6 cells were incubated with 50 nM Fluo4-AM for 30 minutes. After washing, cells were treated with 500 μM BzATP (3′-O-(4-benzoyl)benzoyl ATP) for 1 h, or non-treated, in presence of the compounds of the invention at 50 μM. When indicated, the Topro3 probe (8.5 nM) was added during the 1 h stimulation time. Fluorescence was assayed by flow cytometry.
For orientation: Flow cytometry measures light scatter and fluorescence of single cells or particles in a stream.

“Also recorded” adds a separate entry of the source.

As for `O=C(NCc1ccc(Cl)cc1Cl)[C@@H]1CCC(=O)N1C(=O)Nc1ccc(Cl)c(Cl)c1` [HEI2328, (S)—N^2-(2,4-Dichlorobenzyl)-N^1-(3,4-dichlorophenyl)-5-oxopyrrolidine-1,2-dicarboxamide], under “HEI2328 50 μM combined with BzATP 500 μM, 1 h, mP2RX7 cells”, the Topro3 positive cells was found to be 61%. In addition, the “channel activity (Fluo4-AM)” value (combined with BzATP 500 μM, 1 h stimulation) was “did not impact channel activity”. Moreover, the “Topro3 entry (large pore opening)” value (compound 50 μM, BzATP 500 μM, 1 h, mP2RX7 HEK cells) was “increase Topro3 entry only in presence of BzATP; also recorded: most active”. Besides, under “used alone (no BzATP) on Mock and mP2RX7 cells, 50 μM”, the “channel activity and large pore opening, compound alone” value is given as “did induce neither channel activity nor large pore opening”.

Values taken from US11919854B2, “P2RX7 modulators in therapy” (Centre national de la recherche scientifique, priority 2018, dated 2024).
